Measured values taken from patent US12122761B2, “2-azaspiro[3.4]octane derivatives as M4 agonists” (NOVARTIS AG, priority 2019, dated 2024).

Legend:
[1] = biological target: T1, human cloned CHRM4 receptor (M4_CHO cells) (Homo sapiens, UniProt P08173); experiment: CHRM4 Ca++ Flux Assay (agonist mode, FDSS 7000EX); type: cell-based; details: for Emax: Percent Activity, read-out: M4 FDSS PA; for EC50: geometric mean if tested more than once, read-out: M4 FDSS EC50
T1 construct: expressed in transfected cells; host or cells: CHO-K1
T1 sequence (P08173 1-479): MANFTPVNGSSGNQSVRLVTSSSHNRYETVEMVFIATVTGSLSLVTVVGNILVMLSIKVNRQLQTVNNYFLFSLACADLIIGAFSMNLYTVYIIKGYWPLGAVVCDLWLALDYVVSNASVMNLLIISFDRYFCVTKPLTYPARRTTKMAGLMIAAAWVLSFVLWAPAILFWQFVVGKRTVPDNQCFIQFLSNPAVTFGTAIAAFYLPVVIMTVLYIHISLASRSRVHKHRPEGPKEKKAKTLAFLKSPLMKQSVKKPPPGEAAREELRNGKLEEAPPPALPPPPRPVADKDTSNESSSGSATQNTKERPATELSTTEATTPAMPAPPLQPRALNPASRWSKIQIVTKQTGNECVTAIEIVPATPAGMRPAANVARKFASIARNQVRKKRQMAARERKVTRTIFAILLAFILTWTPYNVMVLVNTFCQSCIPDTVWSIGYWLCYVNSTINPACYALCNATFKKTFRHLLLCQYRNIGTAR
Summary of the method: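 M4_CHO cells loaded with a Ca++ dye for at least 1 h were held 60 min at room temperature in HEPES/probenecid buffer with 20 μM ATP. Ca++ flux after an 11-point compound dose, in triplicate and agonist mode, was recorded over 3 min. Four-parameter fits gave curves, with activity expressed relative to the Carbachol EC100.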

[2] = biological target: T2, Cloned human M1 receptor (CHRM1) stably expressed in HEK293 cells (Homo sapiens, UniProt P11229); experiment: CHRM1 Ca++ Flux Assay (agonist mode, FDSS 7000EX); type: cell-based; details: for Emax: HEK293, Percent Activity, read-out: M1 FDSS PA; for EC50: geometric mean if tested more than once
T2 construct: expressed in transfected cells; host or cells: HEK293
T2 sequence (P11229 1-460): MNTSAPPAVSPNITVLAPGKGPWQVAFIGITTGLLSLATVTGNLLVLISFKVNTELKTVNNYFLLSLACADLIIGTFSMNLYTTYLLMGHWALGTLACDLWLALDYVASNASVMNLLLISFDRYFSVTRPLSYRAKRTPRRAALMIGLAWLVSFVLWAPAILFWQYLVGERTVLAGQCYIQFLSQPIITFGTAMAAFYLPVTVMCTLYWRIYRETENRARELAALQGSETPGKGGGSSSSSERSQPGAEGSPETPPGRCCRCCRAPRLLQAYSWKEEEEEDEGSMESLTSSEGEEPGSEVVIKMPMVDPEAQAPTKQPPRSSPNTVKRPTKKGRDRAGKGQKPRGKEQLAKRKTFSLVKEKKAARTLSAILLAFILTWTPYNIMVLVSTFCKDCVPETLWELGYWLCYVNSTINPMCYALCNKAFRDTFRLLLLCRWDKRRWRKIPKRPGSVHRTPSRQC
Summary of the method: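 Compounds tested as agonists at 11 concentrations in triplicate, with calcium traces captured over 3 minutes. Cells were HEK293 with stable human CHRM1 expression, plated overnight at 25K/well and loaded with calcium dye. Responses normalized to carbachol EC100 and fitted by four-parameter nonlinear regression.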

| Compound | Emax [1] | EC50 [1] | Emax [2] | EC50 [2] |
| --- | --- | --- | --- | --- |
| CC1(COc2ccccc2C2CCN([C@@H]3CCC4(C3)CN(c3nnco3)C4)CC2)CCOCC1 [Example 2E, (R)-2-(6-(4-(2-((4-methyltetrahydro-2H-pyran-4-yl)methoxy)phenyl)piperidin-1-yl)-2-azaspiro[3.4]octan-2-yl)-1,3,4-oxadiazole] | 86% | 2 nM | 78% | 381 nM |
| c1ccc(C2CCN([C@@H]3CCC4(C3)CN(c3nnco3)C4)CC2)c(OC2CCOCC2)c1 [Example 2F, (R)-2-(6-(4-(2-((tetrahydro-2H-pyran-4-yl)oxy)phenyl)piperidin-1-yl)-2-azaspiro[3.4]octan-2-yl)-1,3,4-oxadiazole] | 88% | 7 nM | 112% | 277 nM |
| c1ccc(C2CCN([C@@H]3CCC4(C3)CN(c3nnco3)C4)CC2)c(OCC2CCOCC2)c1 [Example 2G, (R)-2-(6-(4-(2-((tetrahydro-2H-pyran-4-yl)methoxy)phenyl)piperidin-1-yl)-2-azaspiro[3.4]octan-2-yl)-1,3,4-oxadiazole] | 70% | 7 nM | 51% | 429 nM |
| c1ccc(C2CCN([C@@H]3CCC4(C3)CN(c3nnco3)C4)CC2)c(C2CCOCC2)c1 [Example 2H, (R)-2-(6-(4-(2-(tetrahydro-2H-pyran-4-yl)phenyl)piperidin-1-yl)-2-azaspiro[3.4]octan-2-yl)-1,3,4-oxadiazole] | 83% | 3 nM | 61% | 178 nM |
| Fc1ccc(C2CCOCC2)c(C2CCN([C@@H]3CCC4(C3)CN(c3nnco3)C4)CC2)c1 [Example 2I, (R)-2-(6-(4-(5-fluoro-2-(tetrahydro-2H-pyran-4-yl)phenyl)piperidin-1-yl)-2-azaspiro[3.4]octan-2-yl)-1,3,4-oxadiazole] | 96% | 1 nM | 89% | 106 nM |
| c1ccc(C2CCOC2)c(C2CCN([C@@H]3CCC4(C3)CN(c3nnco3)C4)CC2)c1 (stereo partly drawn) [Example 2K, 2-((6R)-6-(4-(2-(tetrahydrofuran-3-yl)phenyl)piperidin-1-yl)-2-azaspiro[3.4]octan-2-yl)-1,3,4-oxadiazole] | 93% | 3 nM | 97% | 133 nM |
| c1ccc(C2CCN([C@@H]3CCC4(C3)CN(c3nnco3)C4)CC2)c(CC2CCOCC2)c1 [Example 2L, (R)-2-(6-(4-(2-((tetrahydro-2H-pyran-4-yl)methyl)phenyl)piperidin-1-yl)-2-azaspiro[3.4]octan-2-yl)-1,3,4-oxadiazole] | 77% | 11 nM | 69% | 540 nM |
| c1ccc(C2CCN([C@@H]3CCC4(C3)CN(c3nnco3)C4)CC2)c(-c2ncco2)c1 [Example 2M, (R)-2-(6-(4-(2-(oxazol-2-yl)phenyl)piperidin-1-yl)-2-azaspiro[3.4]octan-2-yl)-1,3,4-oxadiazole] | 82% | 6 nM | 99% | 93 nM |
| c1ccc(C2CCN([C@@H]3CCC4(C3)CN(c3nncs3)C4)CC2)c(OC2COC2)c1 [Example 3A, (R)-2-(6-(4-(2-(oxetan-3-yloxy)phenyl)piperidin-1-yl)-2-azaspiro[3.4]octan-2-yl)-1,3,4-thiadiazole] | 88% | < 0.4 nM | 92% | 8 nM |
| c1ccc(C2CCN([C@@H]3CCC4(C3)CN(c3nncs3)C4)CC2)c(OC[C@H]2COCCO2)c1 [Example 3B, 2-((R)-6-(4-(2-(((R)-1,4-dioxan-2-yl)methoxy)phenyl)piperidin-1-yl)-2-azaspiro[3.4]octan-2-yl)-1,3,4-thiadiazole] | 70% | 1 nM | 83% | 51 nM |
| c1ccc(C2CCN([C@@H]3CCC4(C3)CN(c3nncs3)C4)CC2)c(OC[C@@H]2COCCO2)c1 [Example 3C, 2-((R)-6-(4-(2-(((S)-1,4-dioxan-2-yl)methoxy)phenyl)piperidin-1-yl)-2-azaspiro[3.4]octan-2-yl)-1,3,4-thiadiazole] | 66% | 2 nM | 88% | 41 nM |
| COc1ccccc1C1CCN([C@@H]2CCC3(C2)CN(c2nncs2)C3)CC1 [Example 3D, (R)-2-(6-(4-(2-methoxyphenyl)piperidin-1-yl)-2-azaspiro[3.4]octan-2-yl)-1,3,4-thiadiazole] | 71% | 2 nM | 78% | 42 nM |
| Fc1cccc(C2CCN([C@@H]3CCC4(C3)CN(c3nncs3)C4)CC2)c1OC1COC1 [Example 3E, (R)-2-(6-(4-(3-fluoro-2-(oxetan-3-yloxy)phenyl)piperidin-1-yl)-2-azaspiro[3.4]octan-2-yl)-1,3,4-thiadiazole] | 87% | 3 nM | 87% | 54 nM |
| COCCOc1ccccc1C1CCN([C@@H]2CCC3(C2)CN(c2nncs2)C3)CC1 [Example 3F, (R)-2-(6-(4-(2-(2-methoxyethoxy)phenyl)piperidin-1-yl)-2-azaspiro[3.4]octan-2-yl)-1,3,4-thiadiazole] | 60% | 6 nM | 68% | 40 nM |
| CC(C)(O)COc1ccccc1C1CCN([C@@H]2CCC3(C2)CN(c2nncs2)C3)CC1 [Example 3G, (R)-1-(2-(1-(2-(1,3,4-thiadiazol-2-yl)-2-azaspiro[3.4]octan-6-yl)piperidin-4-yl)phenoxy)-2-methylpropan-2-ol] | 57% | 7 nM | 66% | 135 nM |
| CC(C)(O)CCOc1ccccc1C1CCN([C@@H]2CCC3(C2)CN(c2nncs2)C3)CC1 [Example 3H, (R)-4-(2-(1-(2-(1,3,4-thiadiazol-2-yl)-2-azaspiro[3.4]octan-6-yl)piperidin-4-yl)phenoxy)-2-methylbutan-2-ol] | 48% | 8 nM | 84% | 20 nM |
| COc1ccccc1C1CCN([C@@H]2CCC3(C2)CN(c2ccns2)C3)CC1 [Example 3I, (R)-5-(6-(4-(2-methoxyphenyl)piperidin-1-yl)-2-azaspiro[3.4]octan-2-yl)isothiazole] | 70% | 1 nM | 70% | 54 nM |
| COCCOc1ccccc1C1CCN([C@@H]2CCC3(C2)CN(c2ncns2)C3)CC1 [Example 3J, (R)-5-(6-(4-(2-(2-methoxyethoxy)phenyl)piperidin-1-yl)-2-azaspiro[3.4]octan-2-yl)-1,2,4-thiadiazole] | 57% | 4 nM | 58% | 85 nM |
| CC(C)(O)COc1ccccc1C1CCN([C@@H]2CCC3(C2)CN(c2ncns2)C3)CC1 [Example 3K, (R)-1-(2-(1-(2-(1,2,4-thiadiazol-5-yl)-2-azaspiro[3.4]octan-6-yl)piperidin-4-yl)phenoxy)-2-methylpropan-2-ol] | 68% | 5 nM | 57% | 186 nM |
| CC(C)(O)CCOc1ccccc1C1CCN([C@@H]2CCC3(C2)CN(c2ncns2)C3)CC1 [Example 3L, (R)-4-(2-(1-(2-(1,2,4-thiadiazol-5-yl)-2-azaspiro[3.4]octan-6-yl)piperidin-4-yl)phenoxy)-2-methylbutan-2-ol] | 34% | 19 nM | 67% | 62 nM |
| COc1ccccc1C1CCN([C@@H]2CCC3(C2)CN(c2nc(C)ns2)C3)CC1 [Example 3M, (R)-5-(6-(4-(2-methoxyphenyl)piperidin-1-yl)-2-azaspiro[3.4]octan-2-yl)-3-methyl-1,2,4-thiadiazole] | 30% | 18 nM | 0% | > 25000 nM |
| Fc1cncc(N2CC3(CC[C@@H](N4CCC(c5ccccc5C5CCOCC5)CC4)C3)C2)c1 [Example 5AA, (R)-2-(5-fluoropyridin-3-yl)-6-(4-(2-(tetrahydro-2H-pyran-4-yl)phenyl)piperidin-1-yl)-2-azaspiro[3.4]octane] | 83% | 10 nM | 61% | 102 nM |
